Here are results for 27 compounds from ChEMBL document CHEMBL1152890, “Synthesis and evaluation of a novel series of heterocyclic oleanolic acid derivatives with anti-osteoclast formation activity” (Eur J Med Chem, 2009).

What all share (type): functional
Test [1] is described as follows: Antiosteoclast activity in ICR mouse osteoblast like cells co-cultured with bone marrow cells assessed as effect on 1-alpha,25(OH)2D3-induced TRAP-positive osteoclast like multinucleated cell formation at 20 uM after 6 days medium replaced every 2 days relative to control.
A short description of test [2]: Antiosteoclast activity in ICR mouse osteoblast like cells co-cultured with bone marrow cells assessed as effect on 1-alpha,25(OH)2D3-induced TRAP-positive osteoclast like multinucleated cell formation at 2 uM after 6 days medium replaced every 2 days relative to control.
Test [3] is described as follows: Antiosteoclast activity in ICR mouse osteoblast like cells co-cultured with bone marrow cells assessed as effect on 1-alpha,25(OH)2D3-induced TRAP-positive osteoclast like multinucleated cell formation at 200 uM after 6 days medium replaced every 2 days relative to control.
A short description of test [4]: Antiosteoclast activity in ICR mouse osteoblast like cells co-cultured with bone marrow cells assessed as recovery of 1-alpha,25(OH)2D3-induced TRAP-positive osteoclast like multinucleated cell formation at 20 uM after 6 days drug removal after 2 days relative to control.
Test [5] is described as follows: Antiosteoclast activity in ICR mouse osteoblast like cells co-cultured with bone marrow cells assessed as recovery of 1-alpha,25(OH)2D3-induced TRAP-positive osteoclast like multinucleated cell formation at 2 uM after 6 days drug removal after 2 days relative to control.

Take `COC(=O)[C@H](Cc1ccccc1)NC(=O)[C@]12CCC(C)(C)C[C@H]1C1=CC[C@@H]3[C@@]4(C)Cc5nc6ccccc6nc5C(C)(C)[C@@H]4CC[C@@]3(C)[C@]1(C)CC2`: the Activity turned out to be 34.2% in test [1], 53.6% in test [2], 93% in test [3] and 93.5% in test [4].

Regarding `COC(=O)[C@@H](NC(=O)[C@]12CCC(C)(C)C[C@H]1C1=CC[C@@H]3[C@@]4(C)Cc5nc6ccccc6nc5C(C)(C)[C@@H]4CC[C@@]3(C)[C@]1(C)CC2)C(C)C`, the Activity in test [1] turned out to be 36.3%; in test [2] it was 37.1%; in test [3] it was 93%; in test [4], 94.6%.

`CC1(C)CC[C@]2(C(=O)O)CC[C@]3(C)C(=CC[C@@H]4[C@@]5(C)CC[C@H](O)C(C)(C)[C@@H]5CC[C@]43C)[C@@H]2C1` [OLEANOLIC_ACID]: the Activity stood at 19.4% in test [1], 89.5% in test [2], 97.5% in test [3] and 98% in test [4].

For the compound `COC(=O)CNC(=O)[C@]12CCC(C)(C)C[C@H]1C1=CC[C@@H]3[C@@]4(C)Cc5c([nH]c6ccccc56)C(C)(C)[C@@H]4CC[C@@]3(C)[C@]1(C)CC2`, the Activity came to 0% in test [1]; 32.3% in test [2]; 86.3% in test [3]; 82.9% in test [4]; 96.1% in test [5].

With `COC(=O)[C@H](Cc1ccccc1)NC(=O)[C@]12CCC(C)(C)C[C@H]1C1=CC[C@@H]3[C@@]4(C)Cc5nccnc5C(C)(C)[C@@H]4CC[C@@]3(C)[C@]1(C)CC2`, the Activity is reported as 29.6% in test [1], 82.8% in test [2], 89.5% in test [4] and 95.6% in test [5].

For `C[C@H](NC(=O)[C@]12CCC(C)(C)C[C@H]1C1=CC[C@@H]3[C@@]4(C)Cc5c([nH]c6ccc(Cl)cc56)C(C)(C)[C@@H]4CC[C@@]3(C)[C@]1(C)CC2)C(=O)O`, the Activity turned out to be 0% in test [1]; 1.4% in test [2]; 98.3% in test [3]; 0% in test [4]; 93.4% in test [5].

Regarding `CC[C@H](C)[C@H](NC(=O)[C@]12CCC(C)(C)C[C@H]1C1=CC[C@@H]3[C@@]4(C)Cc5nc6ccccc6nc5C(C)(C)[C@@H]4CC[C@@]3(C)[C@]1(C)CC2)C(=O)O`, the Activity worked out at 30.6% in test [1], 58.7% in test [2], 95% in test [3] and 94.7% in test [4].

As to `COC(=O)[C@H](C)NC(=O)[C@]12CCC(C)(C)C[C@H]1C1=CC[C@@H]3[C@@]4(C)Cc5nccnc5C(C)(C)[C@@H]4CC[C@@]3(C)[C@]1(C)CC2`, the Activity in test [1] was found to be 3.4%; in test [2] it was 3.8%; in test [3], 93.7%; in test [5] it was 96.1%.

Turning to `COC(=O)CNC(=O)[C@]12CCC(C)(C)C[C@H]1C1=CC[C@@H]3[C@@]4(C)Cc5nc6ccccc6nc5C(C)(C)[C@@H]4CC[C@@]3(C)[C@]1(C)CC2`, the Activity is given as 20.7% in test [1], 31.9% in test [2], 34.1% in test [3] and 94.3% in test [4].

In the case of `COC(=O)[C@H](CC(C)C)NC(=O)[C@]12CCC(C)(C)C[C@H]1C1=CC[C@@H]3[C@@]4(C)Cc5nccnc5C(C)(C)[C@@H]4CC[C@@]3(C)[C@]1(C)CC2`, the Activity in test [1] was 2.8%; in test [2], 1.7%; in test [3], 96.4%; in test [5] it was 95.7%.

Regarding `COC(=O)[C@H](C)NC(=O)[C@]12CCC(C)(C)C[C@H]1C1=CC[C@@H]3[C@@]4(C)Cc5nc6ccccc6nc5C(C)(C)[C@@H]4CC[C@@]3(C)[C@]1(C)CC2`, the Activity is listed as 31.2% in test [1], 25.7% in test [2], 77% in test [3] and 97.7% in test [4].

As to `COC(=O)[C@H](Cc1ccccc1)NC(=O)[C@]12CCC(C)(C)C[C@H]1C1=CC[C@@H]3[C@@]4(C)Cc5c([nH]c6ccc(Cl)cc56)C(C)(C)[C@@H]4CC[C@@]3(C)[C@]1(C)CC2`, the Activity in test [1] worked out at 77.4%; in test [4] it was 70.7%; in test [5] it was 95.2%.

On to `CC(C)[C@H](NC(=O)[C@]12CCC(C)(C)C[C@H]1C1=CC[C@@H]3[C@@]4(C)Cc5c([nH]c6ccc(Cl)cc56)C(C)(C)[C@@H]4CC[C@@]3(C)[C@]1(C)CC2)C(=O)O`, for which the Activity came to 0% in test [1], 80% in test [2] and 0% in test [4].

For the compound `CC1(C)CC[C@]2(C(=O)O)CC[C@]3(C)C(=CC[C@@H]4[C@@]5(C)Cc6c([nH]c7ccc([N+](=O)[O-])cc67)C(C)(C)[C@@H]5CC[C@]43C)[C@@H]2C1`, the values for the Activity in test [1], in test [2] and in test [4] were 0%, 83% and 38.6%, respectively.

As for `CC(C)C[C@H](NC(=O)[C@]12CCC(C)(C)C[C@H]1C1=CC[C@@H]3[C@@]4(C)Cc5nccnc5C(C)(C)[C@@H]4CC[C@@]3(C)[C@]1(C)CC2)C(=O)O`, the Activity worked out at 44.8% in test [1], 21.2% in test [2], 100.2% in test [3] and 93.9% in test [5].

As for `COC(=O)[C@H](CC(C)C)NC(=O)[C@]12CCC(C)(C)C[C@H]1C1=CC[C@@H]3[C@@]4(C)Cc5nc6ccccc6nc5C(C)(C)[C@@H]4CC[C@@]3(C)[C@]1(C)CC2`, the Activity in test [1] turned out to be 14%; in test [2], 55.1%; in test [3], 91.2%; in test [4] it was 97.3%.

`CC1(C)CC[C@]2(C(=O)O)CC[C@]3(C)C(=CC[C@@H]4[C@@]5(C)Cc6c([nH]c7ccc(C(=O)O)cc67)C(C)(C)[C@@H]5CC[C@]43C)[C@@H]2C1`: the Activity was found to be 0% in test [1], 77.2% in test [2] and 97.8% in test [4].

As to `CC[C@H](C)[C@H](NC(=O)[C@]12CCC(C)(C)C[C@H]1C1=CC[C@@H]3[C@@]4(C)Cc5nccnc5C(C)(C)[C@@H]4CC[C@@]3(C)[C@]1(C)CC2)C(=O)OC`, the Activity came out at 0.7% in test [1], 0.7% in test [2], 101% in test [3] and 96.2% in test [5].

Consider `CC(C)C[C@H](NC(=O)[C@]12CCC(C)(C)C[C@H]1C1=CC[C@@H]3[C@@]4(C)Cc5nc6ccccc6nc5C(C)(C)[C@@H]4CC[C@@]3(C)[C@]1(C)CC2)C(=O)O`, for which the Activity in test [1] is listed as 45.9%; in test [2] it was 58.3%; in test [3], 86.3%; in test [4] it was 92.3%.

On to `COC(=O)[C@H](Cc1ccccc1)NC(=O)[C@]12CCC(C)(C)C[C@H]1C1=CC[C@@H]3[C@@]4(C)Cc5c([nH]c6ccccc56)C(C)(C)[C@@H]4CC[C@@]3(C)[C@]1(C)CC2`, for which the Activity in test [1] was found to be 0%; in test [2], 69.2%; in test [4], 79.8%.

For the compound `CC(C)C[C@H](NC(=O)[C@]12CCC(C)(C)C[C@H]1C1=CC[C@@H]3[C@@]4(C)Cc5c([nH]c6ccccc56)C(C)(C)[C@@H]4CC[C@@]3(C)[C@]1(C)CC2)C(=O)O`, the Activity in test [1] worked out at 0%; in test [2], 98.2%; in test [4] it was 80.5%.

Regarding `COC(=O)[C@H](C)NC(=O)[C@]12CCC(C)(C)C[C@H]1C1=CC[C@@H]3[C@@]4(C)Cc5c([nH]c6ccccc56)C(C)(C)[C@@H]4CC[C@@]3(C)[C@]1(C)CC2`, the figures for the Activity in test [1], in test [2] and in test [4] were 0%, 99.4% and 81.5%, respectively.

For the compound `CC1(C)CC[C@]2(C(=O)O)CC[C@]3(C)C(=CC[C@@H]4[C@@]5(C)Cc6nc7ccccc7nc6C(C)(C)[C@@H]5CC[C@]43C)[C@@H]2C1`, the Activity in test [1] is 0%; in test [2], 72.7%; in test [4], 92.6%.

Regarding `CC1(C)CC[C@]2(C(=O)O)CC[C@]3(C)C(=CC[C@@H]4[C@@]5(C)Cc6nc(-c7ccccc7)c(-c7ccccc7)nc6C(C)(C)[C@@H]5CC[C@]43C)[C@@H]2C1`, the Activity in test [1] was 28.1%; in test [2] it was 76.2%; in test [4], 94.5%.

For the compound `NCCCC(O)(P(=O)([O-])O)P(=O)(O)O.[Na+]` [ALENDRONATE SODIUM], the results for the Activity in test [1], in test [2] and in test [3] were 0%, 3.5% and 47.5%, respectively.

In the case of `CC1(C)CC[C@]2(C(=O)O)CC[C@]3(C)C(=CC[C@@H]4[C@@]5(C)Cc6nccnc6C(C)(C)[C@@H]5CC[C@]43C)[C@@H]2C1`, the Activity in test [1] was found to be 1.8%; in test [2], 16.4%; in test [3], 97.6%; in test [4] it was 93.2%.

`CC[C@H](C)[C@H](NC(=O)[C@]12CCC(C)(C)C[C@H]1C1=CC[C@@H]3[C@@]4(C)Cc5c([nH]c6ccc(Cl)cc56)C(C)(C)[C@@H]4CC[C@@]3(C)[C@]1(C)CC2)C(=O)O`: the Activity in test [1] is reported as 0%; in test [2], 86.9%; in test [4] it was 0%.
